From patent US10544134B2, “4-substituted coumarin derivatives and preparation methods and uses thereof” (SI CHUAN UNIVERSITY, priority 2015, dated 2020)
Read-outs that look alike come from different tables or passages of the source. Marks after values point to notes of the source that are not given here.

Columns and labels:
[1] = test system: colon carcinoma cell HCT116; assay: Tumor cell proliferation inhibitory activity test in vitro (MTT); format: cell-based, human; conditions: Homo sapiens, HCT-116, 72 hours, read-out: IC50 of compounds for tumor cells, Activity, HCT116
Source text: (§1) Human non-small cell lung cancer cell line NCI-H460, human small cell lung cancer cell line NCI-H446, human hepatocellular carcinoma cell strain HepG2, human colon carcinoma cell strain HCT116, human prostate cancer PC-3, human melanoma A375, colon carcinoma cell HCT-8, breast cancer cell MCF-7, ovarian cancer cell A2780s, drug-resistant ovarian cancer cell A2780/T, drug-resistant colon cancer cell HCT-8/T and doxorubicin-resistant breast cancer cell MCF-7/ADR are obtained from American Type Culture Collection (ATCC) and are cultured and preserved by the cell bank of State Key Laboratory of Biotherapy of Sichuan University. Above tumor cells are routinely cultured in DMEM culture medium containing 10% fetal bovine serum, 100 U·mL-1 penicillin and 100 mg·L−1 streptomycin, and in an incubator at 37° C. and with saturated humidity and 5% CO2 concentration.
(§2) Fill diluted cell suspension in the 96-well plate with 1000-10000 cells per well and incubate it in CO2 incubator overnight.
(§3) Replace with new medium containing various concentrations of compounds to be tested for the test group and replace with fresh medium with equal volume for the control group, each group is arranged with 5 parallel wells and incubated in an incubator at 37° C. and with 5% CO2 concentration.
(§4) Discard the supernatant after 72 hours, add 200 μL freshly prepared serum-free medium containing 0.2 mg/mL MTT into each well, continue to incubate at 37° C. for 1-4 hours, then stop incubation, carefully remove the culture supernatant in the wells and add 200 uL DMSO (dimethyl sulfoxide), oscillate with a miniature ultrasonic oscillator for 15-20 minutes to make the crystal fully dissolved and mixed. Determine OD values using a microplate reader at 570 nm with a reference wavelength of 450 nm.
(§5) Draw curves based on the growth inhibition rate for tumor cells of the same sample with different concentrations to get dose-response curve, so as to calculate IC50. Repeat each test for 3 times, measure IC50 (μM) or nanomolor concentration (nM) of compounds in different tumor cells.

[2] = test system: hepatocellular carcinoma cell HEPG2; assay: as above; format: cell-based, human; conditions: Homo sapiens, HepG2, 72 hours, read-out: IC50 of compounds for tumor cells, Activity, HEPG2
Source text: as §1, §2, §3, §4, §5

melanoma A375 = assay: as above; format: cell-based, human; conditions: Homo sapiens, A-375, 72 hours, read-out: IC50 of compounds for tumor cells, Activity, A375
Source text: as §1, §2, §3, §4, §5

[3] = test system: non-small cell lung cancer cell line NCI-H460; assay: as above; format: cell-based, human; conditions: Homo sapiens, NCI-H460, 72 hours, read-out: IC50 of compounds for tumor cells, Activity, H460
Source text: as §1, §2, §3, §4, §5

prostate cancer PC-3 = assay: as above; format: cell-based, human; conditions: Homo sapiens, 72 hours, read-out: IC50 of compounds for tumor cells, Activity, PC-3
Source text: as §1, §2, §3, §4, §5

breast cancer cell MCF-7 = assay: as above; format: cell-based; conditions: Homo sapiens
Source text: as §1, §2, §3, §4, §5

[4] = test system: drug-resistant ovarian cancer cell A2780/T; assay: as above; format: cell-based; conditions: Homo sapiens, drug-resistant cells, 72 hours
Source text: as §1, §2, §3, §4, §5

[5] = test system: ovarian cancer cell A2780s; assay: as above; format: cell-based; conditions: Homo sapiens, sensitive cells, 72 hours
Source text: as §1, §2, §3, §4, §5

[6] = test system: colon carcinoma cell HCT-8; assay: as above; format: cell-based; conditions: Homo sapiens, sensitive cells, 72 hours
Source text: as §1, §2, §3, §4, §5

[7] = test system: doxorubicin-resistant breast cancer cell MCF-7/ADR; assay: as above; format: cell-based; conditions: Homo sapiens, NCI/ADR-RES, drug-resistant cells, 72 hours
Source text: as §1, §2, §3, §4, §5

HCT-8/V = assay: as above; format: cell-based; conditions: Homo sapiens, drug-resistant cells, 72 hours
[8] = test system: microtubule in hepatocellular carcinoma cell HepG2; assay: Depolymerization on microtubule by immunofluorescence technique; format: cell-based, human; conditions: HepG2, 16 h, three concentrations
Source text: Place round coverslips into 6-well plate, plate hepatocellular carcinoma cell HepG2 in the 6-well plate and make the cells adhere to the round coverslips.

[9] = test system: human umbilical vein endothelial cells (HUVECs); assay: Wound healing test on HUVECs; format: cell-based; conditions: 24 h of cells migration
Description: (§8) Obtain neonate umbilical cords from clinical sources after being approved by relevant authorities, put them into sterile PBS solution, provide ice bags at the external to keep them under low temperature, and return to the clean bench to operate. Insert a blunt needle into the human umbilical vein and wash with sterile PBS solution for multiple times until cleaning up the tainted blood. Clamp the lower end of the cord with surgical clamps, add collagenase with 1 mg/mL concentration (purchased from Roche) for digestion for 15 to 20 minutes at room temperature and shake the cord up and down at intervals. After digestion, open the surgical clamp at the lower end, let the digestive solution flow into a 50 mL centrifuge tube and wash the cord for 2-3 times with sterile PBS solution. Centrifuge the collected solution for 3 minutes at 1500 rpm. Discard the supernatant, resuspend cells with EBM-2 medium (purchased from lonza) containing various growth factors and incubate them in an incubator at constant temperature of 37° C. with 5% CO2 concentration.
Collect HUVECs between the 3rd to 7th subculture generations and plate them in the 6-well plate. When the cells were about to form a confluent monolayer of cells, change the medium into a serum-free medium to starve the cells for 6 h. […]

[10] = test system: human umbilical vein endothelial cells (HUVECs); assay: Angiogenesis test on HUVECs; format: cell-based; conditions: Matrigel, 8 h treatment
Description: as §8
Place Matrigel (purchased from Becton Dickinson (BD)) at 4° C. and make it in liquid state; precool the pipette tip, 96-well plate and EP tube to be used in the test.
Add Matrigel into the 96-well plate at 50 μL/well and incubate it in an incubator at 37° C. with CO2 concentration for 45 min to make it solidify. […]

plural tumor cells = conditions: cited from earlier work
[11] = test system: mouse colon carcinoma C26; assay: Pharmacodynamics in tumor-bearing mice, colon carcinoma C26 model
Description: Collect tumor cells under aseptic conditions, adjust cell density to 5×10^7 cells/mL with sterilized physiological saline, subcutaneously inoculate 0.2 mL into armpit and back of nude mice, remove the tumor when it grew to 1 cm diameter under aseptic conditions, slice it into 1 mm×1 mm tumor blocks and evenly and subcutaneously inoculate it into armpit and back of nude mice for subculture. Remove the tumor under aseptic conditions after 2 subcultures and when it grew to 1 cm diameter, slice it into 1 mm×1 mm tumor blocks and evenly and subcutaneously inoculate it into armpit and back of nude mice. Conduct random grouping of animals after 7 days when the tumor grew to 100-300 mm^3 and perform tail intravenous injection (i.v.) once per two days, with dosages and administration methods shown in Table 3 and Table 4.
(1) Tumor volume (TV), relative tumor volume (RTV) and relative tumor proliferation rate: measure long diameter and short diameter of tumor in every two days using a vernier caliper or ruler with 1/50 mm precision and dynamically observe anti-tumor effects of tested drugs.
Formula for calculating tumor volume (TV) is: TV (mm3)=a×b^2×π/6; wherein a and b stand for long diameter and short diameter respectively.
Calculate relative tumor volume (RTV) based on the measured results with formula: RTV=Vt/V0, wherein V0 stands for the measured TV of each group at the time of being grouped for administration (i.e. d0) and Vt stands for the TV value of each group for every measurement.
The indicator used to evaluate anti-tumor activity is the relative tumor proliferation rate T/C (%), with the calculating formula as following:
TRTV: relative tumor volume of treated group; CRTV: relative tumor volume of negative control group.
Kill the animal at the end of treatment, dissect and remove the tumor, weigh the tumor and take a picture. The tumor inhibition rate (%) is calculated as the following formula:

[12] = test system: human ovarian cancer cell A2780S; assay: Pharmacodynamics in tumor-bearing nude mice, A2780S model; format: in vivo, mouse
Source text: (§6) Test condition: animal house of SPF level, use permit No. of experiment animals: SYXK (J) 2015-0023
(§7) Weigh the mouse and measure length and width of tumor using a vernier caliper in every two days, perform cervical dislocation for the nude mice after 20 days of drug administration, remove the tumor tissues, weigh and take a picture. Calculate tumor inhibition rate (%) eventually to evaluate anti-tumor effects.

[13] = test system: taxol-resistant ovarian cancer cell A2780/Taxol; assay: Pharmacodynamics in tumor-bearing nude mice, A2780/Taxol model; format: in vivo, mouse
Source text: as §6, §7

tumor = conditions: cited from earlier work
[14] = MCF7, 72 hours, read-out: IC50 of compounds for tumor cells, Activity, MCF-7
[15] = MCF7, sensitive cells, 72 hours, read-out: IC50/nM MCF-7
[16] = subcutaneously transplanted mouse colon carcinoma C26, 5 mg/kg i.v. once/two days
[17] = cells marked (μM), read-out: IC50 MCF-7/ADR
[18] = cells marked (μM), read-out: IC50 HCT-8/V
[19] = A2780s model, 30 mg/kg intraperitoneal once/seven days
[20] = A2780/T model, 30 mg/kg intraperitoneal once/seven days

IC50 [1] | IC50 [2] | IC50 (melanoma A375) | IC50 [3] | IC50 (prostate cancer PC-3) | IC50 (breast cancer cell MCF-7; [14]) | Structure (SMILES) | IC50 [4] | IC50 [5] | IC50 (breast cancer cell MCF-7; [15]) | IC50 [6] | also measured
0.01 to 10 nM | 0.01 to 10 nM | 0.01 to 10 nM | 0.01 to 10 nM | 0.01 to 10 nM | 0.01 to 10 nM | COc1ccc(N(C)c2cc(=O)oc3ccccc23)cc1OC(=O)C1CCCC1 [COUM-73, 4-(N-methyl-N-(4-methoxy-3-(cyclopentyl-carbonyloxy)benzene)-amino) Coumarin] | 3.34 ± 0.101 nM | 1.68 ± 0.075 nM |  |  | 
100 to 5000 nM | 100 to 5000 nM | 100 to 5000 nM | 100 to 5000 nM | 100 to 5000 nM | 100 to 5000 nM | COc1ccc(N(C)c2cc(=O)oc3ccccc23)cc1NC(=O)C1CCCC1 [COUM-97, 4-(N-methyl-N-(4-methoxy-3-(cyclopentylcarbonylamino)phenyl)-amino) Coumarin] |  |  |  |  | 
100 to 5000 nM | 100 to 5000 nM | 100 to 5000 nM | 100 to 5000 nM | 100 to 5000 nM | 100 to 5000 nM | COc1ccc(N(C)c2cc(=O)oc3ccccc23)cc1NC(=O)CCC(=O)O [COUM-98, 4-(N-methyl-N-(4-methoxy-3-(1-carboxylic acid-propanecarbonylamino-)phenyl)-amino) Coumarin] |  |  |  |  | 

The next lines start with the molecule.

Structure (SMILES) | IC50 [1] | IC50 [2] | IC50 (melanoma A375) | IC50 [3] | IC50 (prostate cancer PC-3) | IC50 (breast cancer cell MCF-7; [14]) | IC50 [4] | IC50 [5] | IC50 (breast cancer cell MCF-7; [15]) | IC50 [6] | also measured
COc1ccc(N(C)c2nc(C)nc3ccccc23)cc1 [MPC-6827] | 0.01 to 10 nM | 0.01 to 10 nM | 0.01 to 10 nM | 0.01 to 10 nM | 0.01 to 10 nM | 0.01 to 10 nM | 4.11 ± 0.062 nM | 3.16 ± 0.034 nM | 0.581 ± 0.004 nM | 3.12 ± 0.066 nM | IC50 ([7]; read-out: IC50/nM MCF-7/ADR): 0.699 ± 0.053 nM; IC50 (HCT-8/V; read-out: IC50/nM HCT-8/V): 3.75 ± 0.131 nM; Inhibition of polymerization of microtubule (immunofluorescence observation) [8]: fails to form orderly filamentous structures due to inhibited polymerization; Inhibition of migration of HUVECs [9]: inhibit migration of HUVECs in a dose-dependent manner; Inhibition of angiogenesis of HUVECs [10]: inhibit angiogenesis of HUVECs in a dose-dependent manner; IC50 (plural tumor cells): 1 to 10 nM; Mouse weight during the treatment ([11]; colon carcinoma C26 model, 5 mg/kg i.v. once/two days): significant drops in weight and even died; Average tumor weight [11, 16]: 0.525 g; Tumor inhibition rate (%) [11, 16]: 78.66%
CC(=O)O[C@H]1C(=O)[C@@]2(C)[C@H]([C@H](OC(=O)c3ccccc3)[C@]3(O)C[C@H](OC(=O)[C@H](O)[C@@H](NC(=O)c4ccccc4)c4ccccc4)C(C)=C1C3(C)C)[C@]1(OC(C)=O)CO[C@@H]1C[C@@H]2O [Taxol] |  |  |  |  |  |  | 8120 ± 185 nM | 58.1 ± 24.1 nM | 32.3 ± 19.5 nM | 37 ± 23.9 nM | IC50 [7, 17]: 9150 nM; IC50 (HCT-8/V; [18]): 189 ± 52 nM; Death rate [12, 19]: 0/6; Mouse weight (g) Final [12, 19]: 18.2 ± 0.4 g; Mouse weight (g) Initial [12, 19]: 21.0 ± 0.7 g; T/C (%) [12, 19]: 13.1%; Tumor volume (mm^3) Final [12, 19]: 184.8 ± 26.6 ^c mm^3; Tumor volume (mm^3) Initial [12, 19]: 138.1 ± 25.6 mm^3; Tumor weight (g) X ± SD [12, 19]: 0.28 ± 0.07 ^c g; Tumor weight Inhibition rate % [12, 19]: 82.9%; Weight drop in average ([12]; mouse, in vivo): about 2 g; Death rate [13, 20]: 0/6; T/C (%) [13, 20]: 75.4%; Tumor volume (mm^3) Final [13, 20]: 936.4 ± 347.9^ mm^3; Tumor volume (mm^3) Initial [13, 20]: 155.6 ± 20.6 mm^3; Tumor weight (g) X ± SD [13, 20]: 0.79 ± 0.41 ^ g; Tumor weight Inhibition rate % [13, 20]: 37.7%; Mouse weight (g) Final ([13]; mouse, in vivo, ip, 30 mg/kg): 19.4 ± 1.0 g; Mouse weight (g) Initial ([13]; mouse, in vivo, ip, 30 mg/kg): 20.3 ± 0.8 g
CC[C@]1(O)C[C@H]2CN(CCc3c([nH]c4ccccc34)[C@@](C(=O)OC)(c3cc4c(cc3OC)N(C=O)[C@H]3[C@@](O)(C(=O)OC)[C@H](OC(C)=O)[C@]5(CC)C=CCN6CC[C@]43[C@@H]65)C2)C1 [Vincristin, vincristin] |  |  |  |  |  |  | 476 ± 76.1 nM | 22.4 ± 2.68 nM | 54.7 nM | 14.8 ± 3.15 nM | IC50 [7, 17]: 5850 ± 1390 nM; IC50 (HCT-8/V; [18]): 23 ± 4 nM
COc1ccc2c(-c3ccc(OC)c(O)c3)cc(=O)oc2c1 [compound C] |  |  |  |  |  |  |  |  |  |  | IC50 value, anti-tumor activity (tumor): dozens of nanomolar
